In ChEMBL document CHEMBL1127185, “4-Aryltetrahydropyridines as selective ligands” (Bioorg Med Chem Lett, 1993):

Assays:
Rattus norvegicus [1] = assay: Tested for the inhibition of dopamine synthesis at 10 mg/kg by intraperitoneal administration; type: functional; settings: ip
Rattus norvegicus [2] = assay: Tested for the inhibition of dopamine firing at 2.5 mg/kg by intraperitoneal administration; type: functional; settings: ip
Mus musculus = assay: Tested for effective dose causing inhibition of mouse locomotor activity by intraperitoneal administration; type: functional; settings: ip
D(2) dopamine receptor = D(2) dopamine receptor (Rattus norvegicus, UniProt P61169); assay: Binding affinity against Dopamine receptor D2 in rat striatum using [3H]spiperone; type: tissue-based
Sequence of D(2) dopamine receptor (P61169 whole entry): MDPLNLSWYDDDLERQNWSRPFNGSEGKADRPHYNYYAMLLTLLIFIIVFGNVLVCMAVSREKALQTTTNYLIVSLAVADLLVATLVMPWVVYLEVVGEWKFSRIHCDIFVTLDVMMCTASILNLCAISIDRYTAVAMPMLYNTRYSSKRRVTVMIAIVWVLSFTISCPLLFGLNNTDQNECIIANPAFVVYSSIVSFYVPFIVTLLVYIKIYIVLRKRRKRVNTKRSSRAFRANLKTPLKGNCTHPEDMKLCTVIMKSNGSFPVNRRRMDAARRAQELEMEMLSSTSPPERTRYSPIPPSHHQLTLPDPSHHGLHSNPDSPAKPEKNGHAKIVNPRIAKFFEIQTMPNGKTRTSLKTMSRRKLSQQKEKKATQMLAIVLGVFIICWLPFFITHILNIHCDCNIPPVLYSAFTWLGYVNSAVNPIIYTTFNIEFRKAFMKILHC

Rattus norvegicus [3] = assay: Tested for the inhibition of dopamine firing at 2.5 mg/Kg by intraperitoneal administration; type: functional; settings: ip
Rattus norvegicus [4] = assay: Tested for the inhibition of dopamine synthesis at 10 mg//Kg by intraperitoneal administration; type: functional

SMILES | ED50 (Mus musculus) [mg/kg] | Ki (D(2) dopamine receptor) [nM] | further results
Fc1ccc(C2=CCN(CCCCc3ccncc3)CC2)cc1 | 3.8 | 5310 | inhibition in vivo at 10 mg/kg (Rattus norvegicus [1]): 0%; inhibition in vivo at 2.5 mg/kg (Rattus norvegicus [2]): 9%
Clc1ccc(C2=CCN(CCCCc3ccncc3)CC2)cc1 |  | 456 | 
COc1ccc(C2=CCN(CCCCc3ccncc3)CC2)cc1 | 7.4 | 1640 | inhibition in vivo at 10 mg/kg (Rattus norvegicus [1]): 18%; inhibition in vivo at 2.5 mg/kg (Rattus norvegicus [2]): 6%
C1=C(c2ccccn2)CCN(CCCCc2ccncc2)C1 |  | 322 | 
C1=C(c2ccc3ccccc3c2)CCN(CCCCc2ccncc2)C1 |  | 660 | 
C1=C(c2c[nH]c3ccccc23)CCN(CCCCc2ccncc2)C1 |  | 286 | 
C1=C(c2ccccc2)CCN(CCCCc2ccncc2)C1 | 0.6 | 69.1 | inhibition in vivo at 2.5 mg/kg (Rattus norvegicus [3]): 80%; Inhibition (Rattus norvegicus [4]): 87%
Cc1ccc(C2=CCN(CCCCc3ccncc3)CC2)cc1 |  | 957 | 
C1=C(c2cccs2)CCN(CCCCc2ccncc2)C1 |  | 496 | 
